Patent US12636270B2, “Levothyroxine liquid formulations” (Fresenius Kabi USA, LLC, priority 2016, dated 2026)
Like-named read-outs stand apart in the source and are kept apart here.

Settings: 4 W, 20 mcg/mL, tromethamine 10 mg/mL, 5.4 mg/mL sodium chloride in water
Description: Separate samples containing 20 mcg/mL levothyroxine sodium, 10 mg/mL tromethamine, 5.4 mg/mL sodium chloride, and sodium iodide at a concentration of 280 mcg/mL, 140 mcg/mL, or 6 mcg/mL in water were adjusted to various pH levels. 5 mL of each sample was filled into 10 cc flint molded vials, and the vials were stoppered with 20 mm stoppers under nitrogen.
The HPLC conditions were as follows: • Column: ACE Excel 3 C18-PFP, 4.6×150 mm HPLC column • Mobile Phase A: Sodium heptanesulfonate/Acetonitrile/Water/Methanol/H3PO4 (4.0 g/800 mL/1600 mL/1600 mL/4.0 mL) • Mobile Phase B: Sodium heptanesulfonate/Acetonitrile/Water/Methanol/H3PO4 (4.0 g/2000 mL/200 mL/1800 mL/4.0 mL) • Diluent: 0.01 N NaOH • Column temperature: 25° C. • Flow rate: 1.5 mL/min • Injection volume: 80 μL • Autosampler temperature: 5° C. • Detection: UV at 225 nm • Separation mode: Gradient Gradient Program: […]

[1] = 25° C., NaI 140 mcg/mL, pH 10.5
[2] = 25° C., NaI 280 mcg/mL, pH 10.5
[3] = 55° C., NaI 140 mcg/mL, pH 10.5
[4] = 55° C., NaI 280 mcg/mL, pH 10.5

N[C@@H](Cc1cc(I)c(Oc2cc(I)c(O)c(I)c2)c(I)c1)C(=O)[O-].[Na+] [Levothyroxine Na, 4-(4-hydroxy-3,5-diiodophenoxy)-3,5-diiodo-L-phenylalanine sodium]
% AOII (25° C., NaI 6 mcg/mL, pH 10.5): 0.33%
% total impurities (25° C., NaI 6 mcg/mL, pH 10.5): 1.9%
% AOII (25° C., NaI 140 mcg/mL, pH 9.5): 0.52%
% total impurities (25° C., NaI 140 mcg/mL, pH 9.5): 1.51%
% AOII (25° C., NaI 140 mcg/mL, pH 10): 0.55%
% total impurities (25° C., NaI 140 mcg/mL, pH 10): 1.64%
% AOII [1]: 0.6%
% total impurities [1]: 1.75%
% AOII (25° C., NaI 280 mcg/mL, pH 9.5): 0.56%
% total impurities (25° C., NaI 280 mcg/mL, pH 9.5): 1.58%
% AOII (25° C., NaI 280 mcg/mL, pH 10): 0.55%
% total impurities (25° C., NaI 280 mcg/mL, pH 10): 1.61%
% AOII [2]: 0.57%
% total impurities [2]: 1.66%
% AOII (55° C., NaI 6 mcg/mL, pH 10.5): 0.99%
% total impurities (55° C., NaI 6 mcg/mL, pH 10.5): 3.5%
% AOII (55° C., NaI 140 mcg/mL, pH 9.5): 0.59%
% total impurities (55° C., NaI 140 mcg/mL, pH 9.5): 3.6%
% AOII (55° C., NaI 140 mcg/mL, pH 10): 0.61%
% total impurities (55° C., NaI 140 mcg/mL, pH 10): 2.86%
% AOII [3]: 0.53%
% total impurities [3]: 2.49%
% AOII (55° C., NaI 280 mcg/mL, pH 9.5): 0.53%
% total impurities (55° C., NaI 280 mcg/mL, pH 9.5): 3.24%
% AOII (55° C., NaI 280 mcg/mL, pH 10): 0.54%
% total impurities (55° C., NaI 280 mcg/mL, pH 10): 2.76%
% AOII [4]: 0.53%
% total impurities [4]: 2.43%
